US9980928B2, “Hydroxy aliphatic substituted phenyl aminoalkyl ether derivatives” (PROUS INSTITUTE FOR BIOMEDICAL RESEARCH, S.A., priority 2012, dated 2018)
“And” between values parts separate entries of the source, which are not always exact repeats. Identical values can stand only once.

Assays:
uptake of norepinephrine = uptake of norepinephrine (Homo sapiens, UniProt P23975); assay: Uptake inhibition of norepinephrine, cellular assay; format: cell-based; conditions: read-out: Norepinephrine reuptake inhibition (IC50 μM)
Description: The effect of the compounds of the present invention as inhibitors of the uptake of norepinephrine and serotonin in cellular assays at concentrations that range from […] to 1 nM is determined following the methods described in Galli, A. et al. J Exp Biol 1995, 198(Pt. 10): 2197-212 and Gu, H. et al. J Biol Chem. 1994, 269(10):7124-30.

mice [1] = assay: Tail suspension assay in mice; format: in vivo; conditions: 90 mg/kg, route not given
Description: Another method of measuring antidepressant activity that may be used to evaluate the compounds of the present invention is the tail suspension test in mice described in Vogel, H. G. and Vogel, W. H. (Eds.) Drug Discovery and Evaluation, Springer-Verlag Berlin Heidelberg, 1997) pp. 304-3059). The mouse tail suspension assay was conducted 60 minutes after dosing. The duration of immobility was recorded for a period of 5 minutes after tail suspension was initiated, and reduction in the duration of immobility by ≥50% relative to the control group indicated antidepressant activity. Statistical analysis was also performed by using one-way ANOVA followed by Dunnett's test to compare the data of test compound-treated and vehicle control groups. Significance was considered to be P<0.05.

mice [2] = assay: Mouse formalin assay (analgesic activity); format: in vivo
Description: The analgesic activity of the compounds of the present invention is determined making use of the mouse formalin test described in Hunskaar, S. J Neurosci Methods 1985, 14(1): 69-76. The hind paw licking time was measured at 5-minute intervals for 30 minutes following subplantar injection of formalin (0.02 mL, 2%). Statistical analysis using one-way ANOVA followed by Dunnett's test was applied for comparison between the test substance-treated and vehicle control groups. P<0.05 was considered significant.

[3] = molecular target: T1, Human dopamine transporters (Homo sapiens, UniProt Q01959); assay: Binding to the dopamine transporter ([125I]-RTI-55); conditions: 10 μM; read-out: inhibitory effect on [125I]-RTI-55 binding
T1 construct: expressed in transfected cells; host or cells: CHO-K1 cells (membranes)
Description: Human dopamine transporters expressed in CHO—K1 cells are used in modified Tris-HCl buffer at pH 7.4. […] Non-specific binding is estimated in the presence of […] nomifensine.

mice [4] = assay: Novel object recognition test (acute); format: in vivo
Excerpt: The novel object recognition task is used to evaluate cognition, particularly memory recognition, in rodent models of CNS disorders. This test is based on the spontaneous tendency of rodents to spend more time exploring a novel object than a familiar one. The choice to explore the novel object reflects the use of learning and memory recognition. The novel object recognition test provides a measure of activity in a novel environment allowing tests for emotional reactivity and also for novel object recognition, a cognitive domain that depends on hippocampal functional integrity. Animals were habituated to the presence of two identical objects (LEGO® pieces) during a single session of 5 minutes (training) and sniffing (exploration of an object was defined as pointing the nose to the object at a distance of <1 cm and/or touching it with the nose). Mice were injected with saline or with the compound to be tested and returned to their home cages. At 24 hours the animals were introduced in the same open field again with the same two items (familiarization), and again exploration in each of them for 5 minutes was registered. One hour later, the mice were retested in the open field for 3 minutes, but this time with one of the “familiar” objects replaced by a new one (test). To analyze cognitive performance, a discrimination index was calculated as the difference in time exploring the novel and familiar object, expressed as the ratio of the total time spent exploring both objects, which made it possible to adjust for any differences in total exploration time. This test is useful for assessing impaired cognitive ability in transgenic strains of mice and evaluating novel chemical entities for their effect on cognition (Zhang, R. J Alzheimers Dis 2012, 31(4): 801-12). […] Neuroplasticity 2007, 26496).

p-PLCγ1 = assay: Western blot of p-PLCγ1 in mouse brain after i.p. administration; format: in vivo, mice; conditions: 30 mg/kg i.p., 1 hour after administration
Description: Acute biochemical neuronal changes in neurotrophin and synaptic plasticity signaling after the administration of the compounds to be tested may be studied by Western blot assessment of ERK, Akt, phospholipase C (PLC), Trk-B, […] and CAMK II phosphorylation assays in the hippocampus, striatum and cortex at 1 hour post-administration.
Two groups of animals were used: C57BL control mice and mice treated by i.p. administration of a dose of 30 mg/kg of the compound to be tested diluted in saline solution or control saline (n=6 per group).
Animals were sacrificed by cervical dislocation at the corresponding time and different brain regions were dissected (frontal cortex, striatum, hippocampus, cerebellum) after […] of having administered the compounds. […] The supernatants were collected and the protein concentration was measured using the Dc protein assay kit (Bio-Rad, Hercules, Calif., USA) read in a 96-well plate. […]
After primary antibody incubation, membranes were washed with TBS-T and incubated for 1 hour at room temperature with the appropriate horseradish peroxidase-conjugated secondary antibody (1:2000; Promega, Madison, Wis., USA), and the reaction was finally visualized with the Western Blotting Luminol Reagent (Santa Cruz Biotechnology, Santa Cruz, Calif., USA). Western blot replicates were scanned and quantified using a computer-assisted densitometric analysis.

[5] = acute administration, test session

Chain of uptake of norepinephrine (P23975 whole entry): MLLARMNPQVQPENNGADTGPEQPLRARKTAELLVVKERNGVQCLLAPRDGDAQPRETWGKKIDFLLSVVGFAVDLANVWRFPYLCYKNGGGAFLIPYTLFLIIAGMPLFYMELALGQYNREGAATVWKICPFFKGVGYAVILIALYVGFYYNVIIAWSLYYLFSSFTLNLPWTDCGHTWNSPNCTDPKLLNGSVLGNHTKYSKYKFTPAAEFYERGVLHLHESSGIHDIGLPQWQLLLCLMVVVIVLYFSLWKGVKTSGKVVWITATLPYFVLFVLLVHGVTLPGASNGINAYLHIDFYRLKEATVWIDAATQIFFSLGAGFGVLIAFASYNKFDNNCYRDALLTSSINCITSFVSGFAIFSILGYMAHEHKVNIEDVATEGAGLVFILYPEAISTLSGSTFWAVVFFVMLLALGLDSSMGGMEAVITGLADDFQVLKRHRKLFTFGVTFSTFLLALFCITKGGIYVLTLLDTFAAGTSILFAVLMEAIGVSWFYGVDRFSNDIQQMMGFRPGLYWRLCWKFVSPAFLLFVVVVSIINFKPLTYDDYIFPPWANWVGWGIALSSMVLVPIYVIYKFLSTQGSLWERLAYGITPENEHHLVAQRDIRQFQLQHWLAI
T1 sequence (Q01959 whole entry): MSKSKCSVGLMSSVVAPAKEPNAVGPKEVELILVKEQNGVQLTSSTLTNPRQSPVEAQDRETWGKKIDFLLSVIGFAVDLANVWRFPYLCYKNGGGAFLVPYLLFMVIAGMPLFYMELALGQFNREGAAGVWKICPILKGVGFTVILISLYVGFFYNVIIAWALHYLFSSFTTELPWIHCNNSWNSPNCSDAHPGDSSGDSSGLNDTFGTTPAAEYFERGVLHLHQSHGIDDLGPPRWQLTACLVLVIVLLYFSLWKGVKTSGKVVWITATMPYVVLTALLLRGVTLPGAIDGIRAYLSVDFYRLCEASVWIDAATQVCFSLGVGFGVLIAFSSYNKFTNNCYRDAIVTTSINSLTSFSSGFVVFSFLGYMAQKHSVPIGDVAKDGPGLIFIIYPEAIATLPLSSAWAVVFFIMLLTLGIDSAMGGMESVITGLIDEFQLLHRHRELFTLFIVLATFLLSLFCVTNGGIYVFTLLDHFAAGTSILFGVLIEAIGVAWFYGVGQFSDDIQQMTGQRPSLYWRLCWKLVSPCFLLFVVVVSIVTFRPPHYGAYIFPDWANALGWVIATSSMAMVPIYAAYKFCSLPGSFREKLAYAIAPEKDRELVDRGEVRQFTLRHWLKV

## CNCCC(Oc1ccc(CCO)cc1)c1ccccc1.Cl (single isomer, unassigned) [Example 2, 2-[4-[3-(Methylamino)-1-phenylpropoxy]phenyl]ethanol hydrochloride]
Uptake of norepinephrine
  IC50: 0.0864 µM and 0.086 µM
Mice [1]
  antidepressant effect (duration of immobility): significant activity
Mice [2]; 3 mg/kg oral
  analgesic activity following formalin challenge (hind paw licking time): significant analgesic activity
Mice [2]; 30 mg/kg intraperitoneal
  analgesic activity following formalin challenge (hind paw licking time): significant analgesic activity
Mice [2]; 30 mg/kg oral
  analgesic activity following formalin challenge (hind paw licking time): significant analgesic activity
Mice [2]; 90 mg/kg oral
  analgesic activity following formalin challenge (hind paw licking time): significant analgesic activity
[3]
  inhibition at 10 µM: 88%
Mice [4]; [5]
  time familiar object: 24.4%
  time new object: 75.5%
Mice [4]; acute conditions
  discrimination of the two objects vs saline group: discriminated the two objects better
p-PLCγ1
  p-PLCγ1 change: No significant change
